Measurements: ChEMBL document CHEMBL1201862, “PubChem BioAssay data set” (2004)
Activity calls are given as the source filed them.

Experiments:
[1] = molecular target: Peroxisome proliferator-activated receptor gamma/Nuclear receptor corepressor 2 (Homo sapiens, UniProt P37231+Q9Y618); format: functional
ORF 73 = ORF 73 (Human herpesvirus 8, UniProt O40947); assay: KSHV LANA DNA-binding disruption – biochemical, fluorescence polarization, cherry-picked samples, dose response (AID 504725); parameters: species or system Human gammaherpesvirus 8;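 note: fluorescence polarization of a labeled DNA duplex reporting LANA DNA binding; potency is for inhibitors that block LANA binding to the DNA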
[2] = molecular target: Dual specificity mitogen-activated protein kinase kinase 1 (Homo sapiens, UniProt Q02750); assay: Navigating the Kinome. Panel member name: MAP2K1; format: functional
[3] = molecular target: Serine/threonine-protein kinase TBK1 (Homo sapiens, UniProt Q9UHD2); assay: Navigating the Kinome. Panel member name: TBK1; format: functional
[4] = molecular target: 5'-AMP-activated protein kinase catalytic subunit alpha-1 (Homo sapiens, UniProt Q13131); format: functional
[5] = molecular target: ALK tyrosine kinase receptor (Homo sapiens, UniProt Q9UM73); format: functional;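 note: ALK tested as one member of a kinase panel screen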
[6] = molecular target: T1, Tyrosine-protein kinase receptor TYRO3 (Homo sapiens, UniProt Q06418); format: functional;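 note: TYRO3 value obtained as one member of a kinome-wide profiling panel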
T1 sequence (Q06418 whole entry): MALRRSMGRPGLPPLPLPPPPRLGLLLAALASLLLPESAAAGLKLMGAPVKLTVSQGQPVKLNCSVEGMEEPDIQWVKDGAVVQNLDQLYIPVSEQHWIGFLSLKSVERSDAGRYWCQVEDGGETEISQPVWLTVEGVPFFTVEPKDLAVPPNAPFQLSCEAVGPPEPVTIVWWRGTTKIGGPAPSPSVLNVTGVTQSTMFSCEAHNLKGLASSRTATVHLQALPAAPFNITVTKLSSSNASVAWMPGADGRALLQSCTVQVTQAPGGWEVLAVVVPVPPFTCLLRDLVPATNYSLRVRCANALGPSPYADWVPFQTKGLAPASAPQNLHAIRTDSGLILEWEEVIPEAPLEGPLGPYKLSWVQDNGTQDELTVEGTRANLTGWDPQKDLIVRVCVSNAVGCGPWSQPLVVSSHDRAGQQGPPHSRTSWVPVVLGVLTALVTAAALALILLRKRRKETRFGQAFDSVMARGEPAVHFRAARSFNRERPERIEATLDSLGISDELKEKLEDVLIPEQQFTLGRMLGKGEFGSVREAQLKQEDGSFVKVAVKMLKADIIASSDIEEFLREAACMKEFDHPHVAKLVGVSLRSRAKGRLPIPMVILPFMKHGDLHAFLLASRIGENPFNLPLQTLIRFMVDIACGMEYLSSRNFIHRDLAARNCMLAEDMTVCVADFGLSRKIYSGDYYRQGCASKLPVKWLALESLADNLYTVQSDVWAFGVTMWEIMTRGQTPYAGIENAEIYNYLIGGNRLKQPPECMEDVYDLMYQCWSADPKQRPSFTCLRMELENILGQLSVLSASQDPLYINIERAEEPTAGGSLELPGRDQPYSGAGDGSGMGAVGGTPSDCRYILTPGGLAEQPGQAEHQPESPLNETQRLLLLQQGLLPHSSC

[7] = molecular target: Serine/threonine-protein kinase pim-1 (Homo sapiens, UniProt P11309); format: functional
[8] = molecular target: Serine/threonine-protein kinase PAK 4 (Homo sapiens, UniProt O96013); format: functional;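 note: value obtained within a kinome profiling panel in which PAK4 was one of the panel members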
[9] = molecular target: Tyrosine-protein kinase JAK3 (Homo sapiens, UniProt P52333); format: functional
[10] = molecular target: Serine/threonine-protein kinase TAO1 (Homo sapiens, UniProt Q7L7X3); format: functional
[11] = molecular target: Mitogen-activated protein kinase kinase kinase kinase 2 (Homo sapiens, UniProt Q12851); format: functional;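 note: measured as one member of a kinome-wide kinase panel, with MAP4K2 as the panel entry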
[12] = molecular target: Tyrosine-protein kinase ABL1 (Homo sapiens, UniProt P00519); format: functional
[13] = molecular target: Dual specificity tyrosine-phosphorylation-regulated kinase 1B (Homo sapiens, UniProt Q9Y463); assay: Navigating the Kinome. Panel member name: DYRK1B; format: functional
[14] = molecular target: Platelet-derived growth factor receptor alpha (Homo sapiens, UniProt P16234); assay: Navigating the Kinome. Panel member name: PDGFRA; format: functional
[15] = molecular target: Cyclin-dependent kinase 19 (Homo sapiens, UniProt Q9BWU1); assay: Navigating the Kinome. Panel member name: CDC2L6; format: functional
[16] = molecular target: Rho-associated protein kinase 1 (Homo sapiens, UniProt Q13464); format: functional;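 note: measured within a broad kinome-wide panel profiling many kinases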
[17] = molecular target: T2, Serine/threonine-protein kinase Nek2 (Homo sapiens, UniProt P51955); format: functional
T2 sequence (P51955 whole entry): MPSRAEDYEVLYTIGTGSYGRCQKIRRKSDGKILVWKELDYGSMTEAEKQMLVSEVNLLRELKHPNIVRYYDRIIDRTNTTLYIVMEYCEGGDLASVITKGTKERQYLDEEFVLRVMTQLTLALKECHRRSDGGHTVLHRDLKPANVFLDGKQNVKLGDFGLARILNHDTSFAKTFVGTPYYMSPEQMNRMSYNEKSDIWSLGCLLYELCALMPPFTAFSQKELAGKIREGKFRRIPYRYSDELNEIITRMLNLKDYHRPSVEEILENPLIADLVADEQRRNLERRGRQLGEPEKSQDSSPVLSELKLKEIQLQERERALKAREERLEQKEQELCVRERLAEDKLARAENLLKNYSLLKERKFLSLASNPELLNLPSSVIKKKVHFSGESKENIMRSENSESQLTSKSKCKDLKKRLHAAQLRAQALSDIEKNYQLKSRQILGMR

[18] = molecular target: BDNF/NT-3 growth factors receptor (Homo sapiens, UniProt Q16620); format: functional;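 note: NTRK2 measured as one member of a broad kinome-wide kinase profiling panel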
[19] = molecular target: cAMP-dependent protein kinase catalytic subunit alpha (Homo sapiens, UniProt P17612); format: functional
[20] = molecular target: Dual specificity protein kinase CLK4 (Homo sapiens, UniProt Q9HAZ1); format: functional
[21] = molecular target: Macrophage-stimulating protein receptor (Homo sapiens, UniProt Q04912); assay: Navigating the Kinome. Panel member name: MST1R; format: functional
[22] = molecular target: Dual specificity mitogen-activated protein kinase kinase 2 (Homo sapiens, UniProt P36507); assay: Navigating the Kinome. Panel member name: MAP2K2; format: functional
[23] = molecular target: Sphingosine 1-phosphate receptor 2 (Homo sapiens, UniProt O95136); assay: Dose Response Cell Based Assay for Antagonists of the S1P2 Receptor. [Related pubchem assays: 856, 736 ]; format: functional
[24] = fluconazole-exposed Candida albicans growth modulators – fluorescence, retest, confirmation (AID 2467); format: functional, cell-based
[25] = loss of viability in HepG2 cells – cell-based, CellTiter-Glo, cherry-picked, cytotoxicity control for Shn3 inhibitor project, dose response (AID 624134); format: functional
Orexin receptor type 2 = Orexin receptor type 2 (Homo sapiens, UniProt O43614); assay: Counterscreen assay for antagonists of the orexin 1 receptor (OX1R; HCRTR1): Fluorescence-based cell-based dose response assay for antagonists of the orexin 2 receptor (OX2R; HCRTR2), run by assay provider.; format: functional

Chain of Platelet-derived growth factor receptor alpha (P16234 whole entry): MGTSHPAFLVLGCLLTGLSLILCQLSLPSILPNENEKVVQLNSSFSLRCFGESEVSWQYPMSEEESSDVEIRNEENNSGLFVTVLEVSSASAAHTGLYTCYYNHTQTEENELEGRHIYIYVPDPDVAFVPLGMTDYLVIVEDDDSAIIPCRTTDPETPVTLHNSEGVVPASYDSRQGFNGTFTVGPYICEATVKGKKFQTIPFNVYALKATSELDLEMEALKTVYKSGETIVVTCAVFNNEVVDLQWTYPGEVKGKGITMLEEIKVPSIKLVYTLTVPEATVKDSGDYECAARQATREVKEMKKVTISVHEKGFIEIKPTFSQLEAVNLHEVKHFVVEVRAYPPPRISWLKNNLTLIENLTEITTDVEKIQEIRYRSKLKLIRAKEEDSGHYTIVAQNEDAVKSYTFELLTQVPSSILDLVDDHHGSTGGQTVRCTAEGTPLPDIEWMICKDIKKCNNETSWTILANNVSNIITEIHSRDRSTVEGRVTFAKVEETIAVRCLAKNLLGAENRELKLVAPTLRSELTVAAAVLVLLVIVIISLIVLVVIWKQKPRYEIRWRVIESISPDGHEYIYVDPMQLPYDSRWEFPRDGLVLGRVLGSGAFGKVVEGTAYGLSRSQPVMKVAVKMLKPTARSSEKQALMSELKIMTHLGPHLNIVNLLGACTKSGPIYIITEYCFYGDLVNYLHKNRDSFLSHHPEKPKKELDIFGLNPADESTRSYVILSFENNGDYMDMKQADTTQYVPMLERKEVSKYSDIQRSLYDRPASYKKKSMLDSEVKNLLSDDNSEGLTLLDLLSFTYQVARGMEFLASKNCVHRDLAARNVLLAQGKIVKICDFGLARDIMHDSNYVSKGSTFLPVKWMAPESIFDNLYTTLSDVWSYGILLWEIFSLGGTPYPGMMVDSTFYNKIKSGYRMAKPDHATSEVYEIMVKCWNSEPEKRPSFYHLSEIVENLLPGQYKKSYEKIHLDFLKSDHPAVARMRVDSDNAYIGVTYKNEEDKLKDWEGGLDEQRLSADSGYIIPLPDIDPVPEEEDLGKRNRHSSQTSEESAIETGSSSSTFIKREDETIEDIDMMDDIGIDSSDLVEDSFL
Chain of Macrophage-stimulating protein receptor (Q04912 25-304 limits assumed): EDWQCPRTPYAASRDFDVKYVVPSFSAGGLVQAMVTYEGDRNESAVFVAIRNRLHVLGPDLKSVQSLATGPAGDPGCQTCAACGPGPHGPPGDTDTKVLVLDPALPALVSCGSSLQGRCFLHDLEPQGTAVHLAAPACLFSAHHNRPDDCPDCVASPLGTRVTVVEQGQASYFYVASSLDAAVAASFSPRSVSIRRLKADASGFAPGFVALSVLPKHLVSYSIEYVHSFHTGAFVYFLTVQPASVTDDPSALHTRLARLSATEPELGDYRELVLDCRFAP
Chain of Macrophage-stimulating protein receptor (Q04912 310-1400 limits assumed): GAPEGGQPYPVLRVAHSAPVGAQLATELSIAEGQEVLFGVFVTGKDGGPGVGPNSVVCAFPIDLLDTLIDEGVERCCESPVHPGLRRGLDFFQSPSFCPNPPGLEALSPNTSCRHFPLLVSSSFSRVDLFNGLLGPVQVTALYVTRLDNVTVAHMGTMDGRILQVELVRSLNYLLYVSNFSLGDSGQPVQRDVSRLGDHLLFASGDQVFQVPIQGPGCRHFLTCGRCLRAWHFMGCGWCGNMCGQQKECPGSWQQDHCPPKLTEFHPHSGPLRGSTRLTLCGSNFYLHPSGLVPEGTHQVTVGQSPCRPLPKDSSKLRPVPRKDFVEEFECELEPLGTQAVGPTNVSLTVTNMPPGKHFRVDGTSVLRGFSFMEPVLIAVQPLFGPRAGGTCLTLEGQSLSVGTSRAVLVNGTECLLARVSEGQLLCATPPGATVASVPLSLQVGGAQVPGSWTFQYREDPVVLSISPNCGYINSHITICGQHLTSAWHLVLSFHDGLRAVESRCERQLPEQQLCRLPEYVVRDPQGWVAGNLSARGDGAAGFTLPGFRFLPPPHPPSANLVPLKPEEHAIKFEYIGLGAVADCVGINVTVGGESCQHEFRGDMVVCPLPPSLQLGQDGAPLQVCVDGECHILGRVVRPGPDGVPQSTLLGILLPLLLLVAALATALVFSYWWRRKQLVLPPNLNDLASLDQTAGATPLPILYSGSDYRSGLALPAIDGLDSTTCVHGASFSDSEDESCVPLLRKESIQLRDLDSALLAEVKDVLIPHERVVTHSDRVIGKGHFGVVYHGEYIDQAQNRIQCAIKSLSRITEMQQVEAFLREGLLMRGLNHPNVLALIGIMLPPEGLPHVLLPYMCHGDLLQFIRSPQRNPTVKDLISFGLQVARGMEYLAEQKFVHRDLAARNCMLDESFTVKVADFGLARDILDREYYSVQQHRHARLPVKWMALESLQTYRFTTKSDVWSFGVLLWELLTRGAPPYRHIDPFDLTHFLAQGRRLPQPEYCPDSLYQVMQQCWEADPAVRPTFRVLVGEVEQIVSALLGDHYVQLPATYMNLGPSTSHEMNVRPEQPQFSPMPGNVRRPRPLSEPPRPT
Chain of Tyrosine-protein kinase JAK3 (P52333 whole entry): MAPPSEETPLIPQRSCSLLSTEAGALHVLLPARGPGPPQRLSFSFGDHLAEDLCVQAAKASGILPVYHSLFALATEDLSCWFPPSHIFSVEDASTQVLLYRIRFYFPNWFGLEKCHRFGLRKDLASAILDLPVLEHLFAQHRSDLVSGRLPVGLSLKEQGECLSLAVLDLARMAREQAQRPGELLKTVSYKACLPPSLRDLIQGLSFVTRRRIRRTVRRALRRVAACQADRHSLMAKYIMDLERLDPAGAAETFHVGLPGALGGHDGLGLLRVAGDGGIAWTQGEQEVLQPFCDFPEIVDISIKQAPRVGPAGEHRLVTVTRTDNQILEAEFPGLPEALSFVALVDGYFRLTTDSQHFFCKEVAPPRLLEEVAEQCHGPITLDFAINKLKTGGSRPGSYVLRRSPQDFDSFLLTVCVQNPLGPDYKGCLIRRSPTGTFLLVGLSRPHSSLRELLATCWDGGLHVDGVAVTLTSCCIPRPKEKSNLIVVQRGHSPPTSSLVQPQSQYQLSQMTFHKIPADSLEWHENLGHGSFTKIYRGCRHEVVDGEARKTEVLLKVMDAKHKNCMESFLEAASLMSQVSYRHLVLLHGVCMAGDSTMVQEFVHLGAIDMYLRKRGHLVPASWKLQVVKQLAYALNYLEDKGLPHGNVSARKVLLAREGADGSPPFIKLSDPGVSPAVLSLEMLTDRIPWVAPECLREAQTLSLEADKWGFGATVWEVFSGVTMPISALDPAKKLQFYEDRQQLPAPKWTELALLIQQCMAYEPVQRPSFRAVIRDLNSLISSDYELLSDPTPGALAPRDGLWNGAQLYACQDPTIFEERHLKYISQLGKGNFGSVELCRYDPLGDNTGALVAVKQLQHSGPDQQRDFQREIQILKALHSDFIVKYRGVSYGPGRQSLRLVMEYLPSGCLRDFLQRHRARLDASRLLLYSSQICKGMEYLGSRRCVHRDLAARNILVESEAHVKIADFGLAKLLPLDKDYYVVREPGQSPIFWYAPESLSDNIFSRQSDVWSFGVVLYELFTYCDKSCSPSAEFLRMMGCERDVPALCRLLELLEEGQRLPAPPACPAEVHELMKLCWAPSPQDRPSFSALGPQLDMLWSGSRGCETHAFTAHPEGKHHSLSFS
Chain of Serine/threonine-protein kinase TBK1 (Q9UHD2 whole entry): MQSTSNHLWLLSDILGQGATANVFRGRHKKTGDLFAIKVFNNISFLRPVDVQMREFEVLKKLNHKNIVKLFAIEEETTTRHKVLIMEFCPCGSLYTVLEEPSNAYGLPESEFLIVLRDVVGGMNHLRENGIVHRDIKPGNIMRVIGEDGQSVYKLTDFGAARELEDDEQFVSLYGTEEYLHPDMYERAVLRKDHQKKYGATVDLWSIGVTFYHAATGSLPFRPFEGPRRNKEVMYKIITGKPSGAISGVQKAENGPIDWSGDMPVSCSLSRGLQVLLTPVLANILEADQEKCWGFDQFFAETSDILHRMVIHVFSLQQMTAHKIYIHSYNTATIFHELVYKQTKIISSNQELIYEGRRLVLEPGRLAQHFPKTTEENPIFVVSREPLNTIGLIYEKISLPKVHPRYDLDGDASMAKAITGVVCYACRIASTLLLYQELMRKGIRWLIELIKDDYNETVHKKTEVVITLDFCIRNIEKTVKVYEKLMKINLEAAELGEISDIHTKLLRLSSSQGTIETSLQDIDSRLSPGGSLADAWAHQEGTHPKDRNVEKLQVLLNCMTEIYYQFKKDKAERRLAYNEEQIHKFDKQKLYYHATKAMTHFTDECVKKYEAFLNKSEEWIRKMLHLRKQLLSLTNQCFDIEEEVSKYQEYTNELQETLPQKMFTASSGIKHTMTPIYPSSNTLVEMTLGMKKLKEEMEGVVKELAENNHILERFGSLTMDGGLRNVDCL
Chain of Dual specificity tyrosine-phosphorylation-regulated kinase 1B (Q9Y463 whole entry): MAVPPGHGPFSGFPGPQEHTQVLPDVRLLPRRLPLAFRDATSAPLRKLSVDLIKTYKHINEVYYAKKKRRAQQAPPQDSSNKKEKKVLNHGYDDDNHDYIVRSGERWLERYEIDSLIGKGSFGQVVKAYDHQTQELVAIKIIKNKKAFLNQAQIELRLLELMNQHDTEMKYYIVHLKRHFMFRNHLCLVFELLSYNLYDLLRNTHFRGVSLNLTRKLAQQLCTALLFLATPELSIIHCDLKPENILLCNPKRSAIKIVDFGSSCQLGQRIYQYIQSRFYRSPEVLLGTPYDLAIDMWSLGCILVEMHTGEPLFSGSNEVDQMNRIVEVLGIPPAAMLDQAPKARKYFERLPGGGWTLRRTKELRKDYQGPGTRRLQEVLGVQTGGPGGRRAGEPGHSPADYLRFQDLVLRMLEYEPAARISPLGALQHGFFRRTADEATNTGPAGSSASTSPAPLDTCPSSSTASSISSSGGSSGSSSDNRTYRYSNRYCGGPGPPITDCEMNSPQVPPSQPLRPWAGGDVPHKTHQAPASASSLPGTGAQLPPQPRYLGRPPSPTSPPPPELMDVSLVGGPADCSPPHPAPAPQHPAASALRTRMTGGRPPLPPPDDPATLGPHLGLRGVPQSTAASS

Row | Compound | Ki [2] | Ki [3] | Ki [4] | Ki [5] | Ki [6] | Ki [7] | Ki [8] | Ki [9] | Ki [10] | Ki [11] | Ki [12] | Ki [13] | Ki [14] | Ki [16] | Ki [17] | Ki [18] | Ki [19] | Ki [20] | Ki [21] | Ki [22] | further results
1 | O=C(O)CC(C(=O)O)N1C(=O)/C(=C/C=C/c2ccco2)SC1=S (centres undefined) |  |  |  |  |  |  |  |  |  |  |  |  |  |  |  |  |  |  |  |  | IC50 [1]: > 39800 nM (not active); AC50 (ORF 73): 28900 nM (active)
2 | Cc1ccc(C(=O)OCn2ncc(Cl)c(Cl)c2=O)cc1 |  |  |  |  |  |  |  |  |  |  |  |  |  |  |  |  |  |  |  |  | IC50 [23]: 2650 nM (active); EC50 [24]: > 38000 nM (not active); AC50 [25]: 33200 nM (active); IC50 (Orexin receptor type 2): > 88800 nM (inactive)
3 | CCCC(=O)NC(c1cccs1)c1cc(Cl)c2cccnc2c1O (centres undefined) |  |  |  |  |  |  |  |  |  |  |  |  |  |  |  |  |  |  |  |  | EC50 [24]: 707 nM (active); AC50 [25]: 3760 nM (active)

More lines, main results first:

Row | Ki [2] | Ki [3] | Ki [4] | Ki [5] | Ki [6] | Ki [7] | Ki [8] | Ki [9] | Ki [10] | Ki [11] | Ki [12] | Ki [13] | Ki [14] | Ki [16] | Ki [17] | Ki [18] | Ki [19] | Ki [20] | Ki [21] | Ki [22] | Compound | further results
4 | > 3160 nM (inactive) | > 3160 nM (inactive) | 794 nM (active) | 2000 nM (active) | 794 nM (active) | 1000 nM (active) | 2000 nM (active) | > 5010 nM (inactive) | > 6310 nM (inactive) | > 2510 nM (inactive) | > 2510 nM (inactive) | 794 nM (active) | > 2510 nM (inactive) | 1000 nM (active) | > 3160 nM (inactive) | 3160 nM (active) | 251 nM (active) | > 2510 nM (inactive) | 794 nM (active) | 1580 nM (active) | Cc1ccc(-c2cc(-c3cc(Br)ccc3O)[nH]c(=O)c2C#N)s1 | Ki [15]: > 100000 nM (inactive)
5 | 1000 nM (active) | 3160 nM (active) | 3160 nM (active) | 3160 nM (active) | 1260 nM (active) | 316 nM (active) | > 5010 nM (inactive) | > 5010 nM (inactive) | > 6310 nM (inactive) | 1260 nM (active) | 1260 nM (active) | > 2510 nM (inactive) | > 2510 nM (inactive) | > 3980 nM (inactive) | 1580 nM (active) | > 3980 nM (inactive) | 1260 nM (active) | 1000 nM (active) | > 3980 nM (inactive) | 398 nM (active) | O=C(Nc1cccc(C2Nc3ccc4ccccc4c3C3C=CCC32)c1)c1ccc(F)cc1 (centres undefined) | 
